ChEMBL document CHEMBL3885881, “DrugMatrix”

Species: Rattus norvegicus
Test: DrugMatrix - Regimen: Daily Repeat
Assay type: toxicity, organism-based, Sprague-Dawley
Parameters: regimen Daily Repeat, gender Male, age 6-8 weeks
Settings: in vivo, vehicle 100 % SALINE; for SODIUM / TOTAL BILIRUBIN / TOTAL PROTEIN / URIC ACID / ALANINE AMINOTRANSFERASE / ALBUMIN / ALKALINE PHOSPHATASE / ASPARTATE AMINOTRANSFERASE / BLOOD UREA NITROGEN / CARBON DIOXIDE / CHLORIDE / CHOLESTEROL / CREATINE PHOSPHOKINASE / CREATININE / GLUCOSE / LACTATE DEHYDROGENASE / LIPASE / PHOSPHORUS / POTASSIUM: tissue Plasma; for ABSOLUTE BASOPHIL / ABSOLUTE EOSINOPHIL / ABSOLUTE LYMPHOCYTE / ABSOLUTE MONOCYTE / ABSOLUTE SEGMENTED NEUTROPHIL / BASOPHIL / EOSINOPHIL / ERYTHROCYTE COUNT / HEMATOCRIT / HEMOGLOBIN / LEUKOCYTE COUNT / LYMPHOCYTE / MEAN CORPUSCULAR HEMOGLOBIN / MEAN CORPUSCULAR HEMOGLOBIN CONCENTRATION / MEAN CORPUSCULAR VOLUME / MONOCYTE / NEUTROPHIL / NUCLEATED RED BLOOD CELLS / PLATELET COUNT: tissue Blood
[1] = ip, 40 mg/kg, […], route intraperitoneal, dose level High, time 28 day
[2] = iv, 41 mg/kg, 72 h, dose level High, time 3 day
[3] = iv, 41 mg/kg, 120 h, dose level High, time 5 day
[4] = iv, […], 72 h, dose 4.1 mg/Kg, dose level Low, time 3 day
[5] = iv, […], 120 h, dose 4.1 mg/Kg, dose level Low, time 5 day

Structure (SMILES): CCN[C@@H]1C[C@H](N)[C@@H](O[C@H]2OC(CN)=CC[C@H]2N)[C@H](O)[C@H]1O[C@H]1OC[C@](C)(O)[C@H](NC)[C@H]1O [NETILMICIN]
- SODIUM [1]: 152.1 MEQ/L
- TOTAL BILIRUBIN [1]: 0.18 mg/dL
- TOTAL PROTEIN [1]: 6.45 G/DL
- URIC ACID [1]: 1.03 mg/dL
- ABSOLUTE BASOPHIL [2]: 0 CELLS/uL
- ABSOLUTE EOSINOPHIL [2]: 0 CELLS/uL
- ABSOLUTE LYMPHOCYTE [2]: 13244.67 CELLS/uL
- ABSOLUTE MONOCYTE [2]: 92.33 CELLS/uL
- ABSOLUTE SEGMENTED NEUTROPHIL [2]: 896.33 CELLS/uL
- BASOPHIL [2]: 0%
- EOSINOPHIL [2]: 0%
- ERYTHROCYTE COUNT [2]: 5.54 x10E6/uL
- HEMATOCRIT [2]: 34.4%
- HEMOGLOBIN [2]: 13.9 G/DL
- LEUKOCYTE COUNT [2]: 14.23 x10E3/uL
- LYMPHOCYTE [2]: 93%
- MEAN CORPUSCULAR HEMOGLOBIN [2]: 25.07 pg
- MEAN CORPUSCULAR HEMOGLOBIN CONCENTRATION [2]: 40.4 G/DL
- MEAN CORPUSCULAR VOLUME [2]: 62.1 fL
- MONOCYTE [2]: 0.67%
- NEUTROPHIL [2]: 6.33%
- NUCLEATED RED BLOOD CELLS [2]: 0 /100WBC
- PLATELET COUNT [2]: 1289.67 x10E3/uL
- ALANINE AMINOTRANSFERASE [2]: 47 u/L
- ALBUMIN [2]: 4.27 G/DL
- ALKALINE PHOSPHATASE [2]: 408.33 u/L
- ASPARTATE AMINOTRANSFERASE [2]: 78.67 u/L
- BLOOD UREA NITROGEN [2]: 16.33 mg/dL
- CARBON DIOXIDE [2]: 32 mmol/L
- CHLORIDE [2]: 102.67 MEQ/L
- CHOLESTEROL [2]: 64.33 mg/dL
- CREATINE PHOSPHOKINASE [2]: 176 u/L
- CREATININE [2]: 0.16 mg/dL
- GLUCOSE [2]: 156.33 mg/dL
- LACTATE DEHYDROGENASE [2]: 111.67 u/L
- LIPASE [2]: 9.33 u/L
- PHOSPHORUS [2]: 12.53 mg/dL
- POTASSIUM [2]: 7.26 MEQ/L
- SODIUM [2]: 144.53 MEQ/L
- TOTAL BILIRUBIN [2]: 0.23 mg/dL
- TOTAL PROTEIN [2]: 5.97 G/DL
- URIC ACID [2]: 1.77 mg/dL
- ABSOLUTE BASOPHIL [3]: 0 CELLS/uL
- ABSOLUTE EOSINOPHIL [3]: 0 CELLS/uL
- ABSOLUTE LYMPHOCYTE [3]: 14425.67 CELLS/uL
- ABSOLUTE MONOCYTE [3]: 210.67 CELLS/uL
- ABSOLUTE SEGMENTED NEUTROPHIL [3]: 463.67 CELLS/uL
- BASOPHIL [3]: 0%
- EOSINOPHIL [3]: 0%
- ERYTHROCYTE COUNT [3]: 5.76 x10E6/uL
- HEMATOCRIT [3]: 36.3%
- HEMOGLOBIN [3]: 14.47 G/DL
- LEUKOCYTE COUNT [3]: 15.1 x10E3/uL
- LYMPHOCYTE [3]: 95.67%
- MEAN CORPUSCULAR HEMOGLOBIN [3]: 25.1 pg
- MEAN CORPUSCULAR HEMOGLOBIN CONCENTRATION [3]: 39.87 G/DL
- MEAN CORPUSCULAR VOLUME [3]: 62.97 fL
- MONOCYTE [3]: 1.33%
- NEUTROPHIL [3]: 3%
- NUCLEATED RED BLOOD CELLS [3]: 0.33 /100WBC
- PLATELET COUNT [3]: 1375.67 x10E3/uL
- ALANINE AMINOTRANSFERASE [3]: 52 u/L
- ALBUMIN [3]: 4.33 G/DL
- ALKALINE PHOSPHATASE [3]: 313.33 u/L
- ASPARTATE AMINOTRANSFERASE [3]: 87.67 u/L
- BLOOD UREA NITROGEN [3]: 18.33 mg/dL
- CARBON DIOXIDE [3]: 35 mmol/L
- CHLORIDE [3]: 100.33 MEQ/L
- CHOLESTEROL [3]: 60.67 mg/dL
- CREATINE PHOSPHOKINASE [3]: 309.33 u/L
- CREATININE [3]: 0.19 mg/dL
- GLUCOSE [3]: 145.33 mg/dL
- LACTATE DEHYDROGENASE [3]: 281 u/L
- LIPASE [3]: 10.33 u/L
- PHOSPHORUS [3]: 11.93 mg/dL
- POTASSIUM [3]: 7.18 MEQ/L
- SODIUM [3]: 145.03 MEQ/L
- TOTAL BILIRUBIN [3]: 0.17 mg/dL
- TOTAL PROTEIN [3]: 6.23 G/DL
- URIC ACID [3]: 1.8 mg/dL
- ABSOLUTE BASOPHIL [4]: 0 CELLS/uL
- ABSOLUTE EOSINOPHIL [4]: 0 CELLS/uL
- ABSOLUTE LYMPHOCYTE [4]: 4768 CELLS/uL
- ABSOLUTE MONOCYTE [4]: 54 CELLS/uL
- ABSOLUTE SEGMENTED NEUTROPHIL [4]: 578 CELLS/uL
- BASOPHIL [4]: 0%
- EOSINOPHIL [4]: 0%
- ERYTHROCYTE COUNT [4]: 5.02 x10E6/uL
- HEMATOCRIT [4]: 31.53%
- HEMOGLOBIN [4]: 12.37 G/DL
- LEUKOCYTE COUNT [4]: 5.4 x10E3/uL
- LYMPHOCYTE [4]: 88.33%
- MEAN CORPUSCULAR HEMOGLOBIN [4]: 24.67 pg
- MEAN CORPUSCULAR HEMOGLOBIN CONCENTRATION [4]: 39.23 G/DL
- MEAN CORPUSCULAR VOLUME [4]: 62.83 fL
- MONOCYTE [4]: 1%
- NEUTROPHIL [4]: 10.67%
- NUCLEATED RED BLOOD CELLS [4]: 0.33 /100WBC
- PLATELET COUNT [4]: 1171 x10E3/uL
- ALANINE AMINOTRANSFERASE [4]: 52.33 u/L
- ALBUMIN [4]: 4.23 G/DL
- ALKALINE PHOSPHATASE [4]: 370.33 u/L
- ASPARTATE AMINOTRANSFERASE [4]: 91.67 u/L
- BLOOD UREA NITROGEN [4]: 16 mg/dL
- CARBON DIOXIDE [4]: 33.67 mmol/L
- CHLORIDE [4]: 99.33 MEQ/L
- CHOLESTEROL [4]: 62 mg/dL
- CREATINE PHOSPHOKINASE [4]: 447.67 u/L
- CREATININE [4]: 0.17 mg/dL
- GLUCOSE [4]: 154 mg/dL
- LACTATE DEHYDROGENASE [4]: 115.33 u/L
- LIPASE [4]: 9.33 u/L
- PHOSPHORUS [4]: 10.83 mg/dL
- POTASSIUM [4]: 6.02 MEQ/L
- SODIUM [4]: 143.23 MEQ/L
- TOTAL BILIRUBIN [4]: 0.23 mg/dL
- TOTAL PROTEIN [4]: 6.03 G/DL
- URIC ACID [4]: 0.8 mg/dL
- ABSOLUTE BASOPHIL [5]: 0 CELLS/uL
- ABSOLUTE EOSINOPHIL [5]: 0 CELLS/uL
- ABSOLUTE LYMPHOCYTE [5]: 13577.67 CELLS/uL
- ABSOLUTE MONOCYTE [5]: 137 CELLS/uL
- ABSOLUTE SEGMENTED NEUTROPHIL [5]: 1018.67 CELLS/uL
- BASOPHIL [5]: 0%
- EOSINOPHIL [5]: 0%
- ERYTHROCYTE COUNT [5]: 5.81 x10E6/uL
- HEMATOCRIT [5]: 36.13%
- HEMOGLOBIN [5]: 14.33 G/DL
- LEUKOCYTE COUNT [5]: 14.73 x10E3/uL
- LYMPHOCYTE [5]: 92%
- MEAN CORPUSCULAR HEMOGLOBIN [5]: 24.7 pg
- MEAN CORPUSCULAR HEMOGLOBIN CONCENTRATION [5]: 39.7 G/DL
- MEAN CORPUSCULAR VOLUME [5]: 62.17 fL
- MONOCYTE [5]: 1%
- NEUTROPHIL [5]: 7%
- NUCLEATED RED BLOOD CELLS [5]: 0 /100WBC
- PLATELET COUNT [5]: 1276.33 x10E3/uL
- ALANINE AMINOTRANSFERASE [5]: 46.33 u/L
- ALBUMIN [5]: 4.3 G/DL
- ALKALINE PHOSPHATASE [5]: 383.33 u/L
- ASPARTATE AMINOTRANSFERASE [5]: 80.67 u/L
- BLOOD UREA NITROGEN [5]: 16 mg/dL
- CARBON DIOXIDE [5]: 31.67 mmol/L
- CHLORIDE [5]: 101.33 MEQ/L
- CHOLESTEROL [5]: 83.33 mg/dL
- CREATINE PHOSPHOKINASE [5]: 216.67 u/L
- CREATININE [5]: 0.17 mg/dL
- GLUCOSE [5]: 166.33 mg/dL
- LACTATE DEHYDROGENASE [5]: 180 u/L
- LIPASE [5]: 9.33 u/L
- PHOSPHORUS [5]: 13.33 mg/dL
- POTASSIUM [5]: 7.09 MEQ/L
- SODIUM [5]: 145.07 MEQ/L
- TOTAL BILIRUBIN [5]: 0.13 mg/dL
- TOTAL PROTEIN [5]: 6.3 G/DL
- URIC ACID [5]: 1.93 mg/dL
